Read-outs that look alike come from different tables or passages of the source. Each block holds one compound with its values, some of them ahead of it.
Columns and labels:
[1] = test system: NCI/ADR-RES (P-gp over-expressing resistant line of OVCAR-8); assay: Cytotoxicity (SRB) assay, NCI/ADR-RES; type: cell-based, human; details: NCI/ADR-RES relative to OVCAR-8
[2] = test system: PC-3 human prostate cancer cell line; assay: cells
Excerpt: (§1) Cells were stained with SRB solution.

[3] = test system: melanoma and prostate cancer cell lines; assay: Antiproliferative activity summarised over the cell line panel (range or average); type: cell-based
[4] = Pharmacokinetic study in Sprague-Dawley rats; details: rat, oral
MES-SA/DX5 cells = assay: Growth inhibition (SRB) assay, MES-SA/Dx5; type: cell-based; details: ratio of IC50 MES-SA/DX5 to MES-SA
[5] = test system: MDA-MB-435/LCCMDR1 multidrug-resistant melanoma cells; assay: Cytotoxicity (SRB) assay, MDA-MB-435/LCCMDR1; type: cell-based; details: for IC50: Homo sapiens
[6] = test system: A375 human melanoma cell line; assay: Cytotoxicity (SRB) assay, A375; type: cell-based; details: Homo sapiens
[7] = test system: B16-F1 mouse melanoma cell line; assay: Cytotoxicity (SRB) assay, B16-F1; type: cell-based; details: Mus musculus, B16-F1, Table 11; read-out: IC50, B16-F1
[8] = test system: PPC-1 human prostate cancer cell line; assay: Cytotoxicity (SRB) assay, PPC-1; type: cell-based; details: Homo sapiens
Excerpt: as §1

[9] = test system: DU 145 human prostate cancer cell line; assay: Cytotoxicity (SRB) assay, DU 145; type: cell-based; details: Homo sapiens
Excerpt: as §1

[10] = test system: LNCaP human prostate cancer cell line; assay: Cytotoxicity (SRB) assay, LNCaP; type: cell-based; details: Homo sapiens, LNCaP
Excerpt: as §1

[11] = test system: WM-164 human melanoma cell line; assay: Cytotoxicity (SRB) assay, WM-164; type: cell-based; details: Homo sapiens, WM164, Table 11; read-out: IC50, WM164
DU-145/TXR cells = assay: Growth inhibition, DU-145/TXR; type: cell-based; details: Homo sapiens
[12] = test system: MDA-MB-435 parental nonresistant melanoma cells; assay: Cytotoxicity (SRB) assay, MDA-MB-435; type: cell-based; details: Homo sapiens
[13] = test system: PC-3_TxR paclitaxel-resistant prostate cancer cells (P-gp over-expressing); assay: cells; details: Homo sapiens, PC3-TxR
HEK293-pcDNA3.1 cells = assay: Cytotoxicity assay, HEK293-pcDNA3.1 (parental line of the MRP/BCRP sublines); type: cell-based; details: Table 14B; parental cell line; read-out: IC50 ± SEM, HEK293-pcDNA3.1
WM-164 melanoma cells = assay: Microtubule imaging (immunofluorescence); type: cell-based, human; details: WM-164 cells, 18 h
Excerpt: Primary antibody for tubulin and fluorescence-labeled secondary antibody were subsequently added to the cells. Cell nuclei were stained by DAPI. Whole Cell Stain Green was also applied to all cells. All images were acquired with an Olympus IX71 inverted fluorescence microscope (Olympus Corp., Tokyo, Japan) with overlays from separate images of tubulin (red), nuclei (blue), and whole cells (green).

[14] = test system: confluent HUVEC monolayers; assay: Endothelial monolayer permeability assay; details: FITC-dextran leakage, 1, 2, 4 h
B16-F1 melanoma tumors = assay: In vivo B16-F1 melanoma allograft; design: species or system mouse
Protocol: Female C57/BL mice, age 4-6 weeks, were purchased from Harlan Laboratories (Harlan Laboratories Inc., Indianapolis, Ind.). The animal housing met the Association for Assessment and Accreditation and Laboratory Animal Care specifications. All of the procedures were conducted in accordance with guidelines of our Institutional Animal Care and Use Committee.
Tumor volume was expressed in cubic millimeters.

PC-3 xenograft = assay: In vivo PC-3 prostate tumor xenograft; details: PC-3, 50 mg/kg i.p. daily; control 680 mm^3
PC-3_TxR xenograft = assay: In vivo PC-3/TxR xenograft; details: for tumor growth inhibition (TGI): PC-3/TxR tumors
[15] = Homo sapiens, read-out: IC50 PC-3, SRB assay, prostate cancer PC-3
[16] = A-375, Table 11, read-out: IC50, A375
[17] = PPC-1, Table 11, read-out: IC50, PPC-1
[18] = DU-145, Table 11, read-out: IC50, Du 145
[19] = Table 11, read-out: IC50, LNCaP
[20] = Tables 11-13, read-out: IC50 (average of all seven cell lines)
[21] = PPC-1, Table 12, read-out: IC50 ± SEM, PPC-1 (converted)
[22] = DU-145, Table 12, read-out: IC50 ± SEM, Du 145
[23] = Homo sapiens, read-out: IC50 ± SEM, PC-3, Table 12
[24] = Table 14D, read-out: IC50 ± SEM, MDA-MB-435/LCC-6MDR1 (converted)
[25] = Table 14D, read-out: IC50 ± SEM, MDA-MB-435 (converted)
[26] = Table 12, read-out: IC50 ± SEM, LNCaP (converted)
[27] = DU-145, Table 13A, read-out: inhibitory effects, DU-145/TXR
[28] = PPC-1, Table 13A, read-out: inhibitory effects, PPC1
[29] = DU-145, Table 13A, read-out: inhibitory effects, DU145
[30] = Homo sapiens, read-out: inhibitory effects, PC3, Table 13A
[31] = Table 13A, read-out: inhibitory effects, LNCaP
[32] = read-out: inhibitory effects, PC3/TXR

IC50 ([2]; read-out: IC50, PC-3, Table 11): > 10 µM
IC50 [3, 20]: > 10 µM
SMILES: COc1ccc(C(=O)n2ccnc2-c2ccccc2)cc1 [12aba, (4-methoxyphenyl)(2-phenyl-1H-imidazol-1-yl)methanone]
IC50 [6, 16]: > 10 µM
IC50 [7]: > 10 µM
IC50 [8, 17]: > 10 µM
IC50 [9, 18]: > 10 µM
IC50 [10, 19]: > 10 µM
IC50 [11]: > 10 µM

IC50 ([2]; read-out: IC50, PC-3, Table 11): > 10 µM
IC50 [3, 20]: > 10 µM
SMILES: COc1ccc(C(=O)c2c[nH]c(-c3ccccc3)n2)cc1OC [12ae, (3,4-dimethoxyphenyl)(2-phenyl-1H-imidazol-4-yl)methanone]
IC50 [6, 16]: > 10 µM
IC50 [7]: > 10 µM
IC50 [8, 17]: > 10 µM
IC50 [9, 18]: > 10 µM
IC50 [10, 19]: > 10 µM
IC50 [11]: > 10 µM

IC50 ([2]; read-out: IC50, PC-3, Table 11): > 10 µM
IC50 [3, 20]: > 10 µM
SMILES: O=C(c1cccc(F)c1)c1c[nH]c(-c2ccccc2)n1 [12ag, (3-fluorophenyl)(2-phenyl-1H-imidazol-4-yl)methanone]
IC50 [6, 16]: > 10 µM
IC50 [7]: > 10 µM
IC50 [8, 17]: > 10 µM
IC50 [9, 18]: > 10 µM
IC50 [10, 19]: > 10 µM
IC50 [11]: > 10 µM

IC50 (DU-145/TXR cells; Table 12, in parentheses in the Du 145 column, read-out: IC50, DU-145/TXR): 0.02 µM
IC50 [2, 23]: 0.013 µM
SMILES: CCc1ccc(-c2nc(C(=O)c3cc(OC)c(OC)c(OC)c3)c[nH]2)cc1 [12q, (2-(4-ethylphenyl)-1H-imidazol-4-yl)(3,4,5-trimethoxyphenyl)methanone]
IC50 ([6]; A-375, Table 14D, read-out: IC50 ± SEM, A375 (converted)): 0.0014 µM
IC50 [8, 21]: 0.015 µM
IC50 [9, 22]: 0.025 µM
IC50 [5, 24]: 0.027 ± 0.003 µM
IC50 [12, 25]: 0.107 ± 0.005 µM

IC50 [2, 23]: 0.136 µM
SMILES: COc1cc(C(=O)c2c[nH]c(-c3ccc(C(C)C)cc3)n2)cc(OC)c1OC [12v, (2-(4-isopropylphenyl)-1H-imidazol-4-yl)(3,4,5-trimethoxyphenyl)methanone]
IC50 [8, 21]: 0.173 µM
IC50 [9, 22]: 0.482 µM
IC50 [5, 24]: 0.25 µM
IC50 [10, 26]: 0.171 µM
IC50 [12, 25]: 0.312 µM

IC50 [2, 23]: 0.436 µM
SMILES: COc1cc(C(=O)c2c[nH]c(-c3ccc(C(C)(C)C)cc3)n2)cc(OC)c1OC [12w, (2-(4-tert-butylphenyl)-1H-imidazol-4-yl)(3,4,5-trimethoxyphenyl)methanone]
IC50 [8, 21]: 0.294 µM
IC50 [9, 22]: 1.7 µM
IC50 [5, 24]: 3.07 µM
IC50 [10, 26]: 0.423 µM
IC50 [12, 25]: 3.69 µM

IC50 (DU-145/TXR cells; [27]): 0.0229 µM
IC50 [2, 30]: 0.014 µM
SMILES: COc1cc(C(=O)c2nc(-c3ccccc3)c[nH]2)cc(OC)c1OC [70a, (4-Phenyl-1H-imidazol-2-yl)(3,4,5-trimethoxyphenyl)methanone and (5-phenyl-1H-imidazol-2-yl)(3,4,5-trimethoxyphenyl)methanone]
IC50 [8, 28]: 0.013 µM
IC50 [9, 29]: 0.0215 µM
IC50 [5, 24]: 0.043 µM
IC50 [10, 31]: 0.006 µM
IC50 [12, 25]: 0.079 µM

IC50 (DU-145/TXR cells; [27]): 0.027 µM
IC50 [2, 30]: 0.016 µM
IC50 [13, 32]: 0.0075 µM
SMILES: COc1cc(C(=O)c2nc(-c3ccccc3)cn2C)cc(OC)c1OC [70m, (1-Methyl-4-phenyl-1H-imidazol-2-yl)(3,4,5-trimethoxyphenyl)methanone]
IC50 [8, 28]: 0.013 µM
IC50 [9, 29]: 0.026 µM

IC50 (DU-145/TXR cells; [27]): 0.066 µM
IC50 [2, 30]: 0.025 µM
IC50 [13, 32]: 0.02 µM
SMILES: CCn1cc(-c2ccccc2)nc1C(=O)c1cc(OC)c(OC)c(OC)c1 [70n, (1-Ethyl-4-phenyl-1H-imidazol-2-yl)(3,4,5-trimethoxyphenyl)methanone]
IC50 [9, 29]: 0.066 µM
IC50 [10, 31]: 0.029 µM

The remaining lines, values behind:

SMILES: COc1cc(C(=NC#N)c2csc(-c3ccccc3)n2)cc(OC)c1OC [2j, N-((2-phenylthiazol-4-yl)(3,4,5-trimethoxyphenyl)methylene)cyanamide]
Resistance factor [1]: 0.4
IC50 [2, 15]: 0.027 ± 0.001 µM
IC50 ([3]; read-out: IC50 (range over tested cell lines)): 0.02 to 0.06 µM

SMILES: COc1cc(C(=O)c2csc(Nc3ccc(F)cc3)n2)cc(OC)c1OC.Cl [5Hc, (2-(p-fluorophenylamino)thiazol-4-yl)(3,4,5-trimethoxyphenyl)methanone hydrochloride salt]
increased exposure (AUC) by the oral route compared to 1h [4]: more than 4.3 fold

SMILES: Fc1ccc(-c2nccc3ccc(-c4ccc5[nH]ccc5c4)cc23)cc1 [6c, 1-(4-Fluoro-phenyl)-7-(H-indol-5-yl)-isoquinoline]
Resistance factor (MES-SA/DX5 cells): 1.7

SMILES: O=C(c1ccc(F)cc1)c1cn(S(=O)(=O)c2ccccc2)c(-c2ccc(Cl)cc2)n1 [11fb, (2-(4-chlorophenyl)-1-(phenylsulfonyl)-1H-imidazol-4-yl)(4-fluorophenyl)methanone]
IC50 ([5]; MDA-MB-435/LCCMDR1, read-out: IC50 MDR melanoma cell line): 0.035 µM
resistance index ([5]; MDA-MB-435/LCCMDR1 vs MDA-MB-435): 0.7

SMILES: COc1cc(Cc2nc(-c3ccccc3)c(-c3ccccc3)[nH]2)cc(OC)c1OC [102 e, 4,5-Diphenyl-2-(3,4,5-trimethoxybenzyl)-1H-imidazole]
IC50 ([5]; Table 14C, melanoma cells, read-out: IC50 ± SEM MDA-MB-435/LCC-6MDR1): > 50 µM
IC50 ([12]; Table 14C, melanoma cells, read-out: IC50 ± SEM MDA-MB-435): > 50 µM

SMILES: COc1ccc(S(=O)(=O)Nc2cccnc2Nc2ccc(O)cc2)cc1 [ABT-751, reference compound]
IC50 (HEK293-pcDNA3.1 cells): 0.645 ± 0.153 µM
IC50 ([5]; Table 14B, MDR1 overexpressed, read-out: IC50 ± SEM, MDA-MB-435/LCC6MDR1): 0.577 ± 0.031 µM
P-gp substrate / multidrug resistance in words ([5]; MDR melanoma line vs sensitive parent line): not susceptible to MDR1, MRP, or BCRP
effect on microtubules in words (WM-164 melanoma cells): microtubule fragmentation

SMILES: COc1ccc(/C=C\c2cc(OC)c(OC)c(OC)c2)cc1O [CA4, Combretastatin A-4]
permeability of endothelial cell monolayer in words [14]: increased permeability

SMILES: CN(C)/N=N/c1[nH]cnc1C(N)=O [DTIC, 5-(3,3,-dimethyl-1-triazenyl)-imidazole-4-carboxamide, reference compound]
tumor volume reduction (B16-F1 melanoma tumors; C57/BL mice, 60 mg/kg i.p. daily, 14 days): 51%
tumor growth inhibition (TGI) (B16-F1 melanoma tumors; C57BL/6 mice, 60 mg/kg, 13 days): 51%

SMILES: O=C(c1ccc2[nH]ccc2c1)c1csc(-c2cc3ccccc3[nH]2)n1 [compound 21, (2-(1H-indol-2-yl)thiazol-4-yl)(1H-indol-5-yl)methanone]
tumor volume at day 21 (PC-3 xenograft): 331 mm^3

SMILES: CC(=O)O[C@@]12CO[C@@H]1C[C@H](O)[C@@]1(C)C(=O)[C@H](O)C3=C(C)[C@@H](OC(=O)[C@H](O)[C@@H](NC(=O)OC(C)(C)C)c4ccccc4)C[C@@](O)([C@@H](OC(=O)c4ccccc4)[C@H]21)C3(C)C [docetaxel, reference compound]
tumor growth inhibition (TGI) (PC-3_TxR xenograft; i.v. 10 mg/kg on day 1 and 9): 14%
tumor growth inhibition (TGI) (PC-3_TxR xenograft; i.v. 20 mg/kg on day 1 and 9): 56%
Tumor size End (PC-3_TxR xenograft; PC-3/TxR xenograft, IV 10 mpk, day 1 and 9, day 19, […]): 1774 ± 183 mm^2
IC50 ([2]; Homo sapiens, read-out: IC50, PC-3, Table 7): 0.0063 ± 0.0004 µM
IC50 [2, 15]: 0.0012 ± 0.0001 µM
IC50 ([13]; read-out: IC50 PC-3/TxR): 0.0177 ± 0.0007 µM
